Test results published in patent US20240246941A1, “SUBSTITUTED 4-(3-AMINOPROP-1-YL)AMINOQUINOLINE ANALOGS AS MODULATORS OF MELANOMA-ASSOCIATED ANTIGEN 11 UBIQUITIN LIGASE” (ST. JUDE CHILDREN'S RESEARCH HOSPITAL, INC., priority 2020, published 2024).

Biological target: interaction between GST-MAGEA11 MHD and FAM-PCF11_4 peptide (MAGE-A11:PCF11) (Homo sapiens (Human), UniProt P43364)
Assay: TR-FRET dose response competition assay for disruption of MAGE-A11:PCF11 binding
Settings: Dose response TR-FRET screening of nine scaffold groups against MAGE-A11:PCF11; read-out: consensus IC50
In short: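 Competition TR-FRET at room temperature in 50 mM Tris pH 7.5, 20 mM MgCl2, 0.1 mg/ml BSA, 1 mM DTT: final 5 nM GST-MAGEA11 MHD, 5 nM Tb-anti-GST, 200 nM FAM-PCF11_4, 90 min. Ratio 520/490 nm converted to % inhibition; IC50 from sigmoidal fit.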

Sequence of interaction between GST-MAGEA11 MHD and FAM-PCF11_4 peptide (MAGE-A11:PCF11) (P43364 218-429): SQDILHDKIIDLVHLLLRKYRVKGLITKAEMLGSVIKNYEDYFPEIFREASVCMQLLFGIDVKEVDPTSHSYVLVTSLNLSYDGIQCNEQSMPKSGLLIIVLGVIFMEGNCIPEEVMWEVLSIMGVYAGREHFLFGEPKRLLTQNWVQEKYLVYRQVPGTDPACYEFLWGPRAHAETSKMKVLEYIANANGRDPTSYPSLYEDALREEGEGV

Compound | IC50
CCCCn1c(=O)[nH]c(=O)c2c1nc(-c1ccc(C(F)(F)F)cc1)n2C [SJ000378916-1] | 69.9 µM
COCCn1c(-c2ccc(SC)cc2)nc2c1c(=O)[nH]c(=O)n2CC(C)C [SJ000378917-1] | 69.9 µM
CCCCn1c(=O)[nH]c(=O)c2c1nc(-c1ccc(C)c([N+](=O)[O-])c1)n2CC [SJ000378919-1] | 69.9 µM
CCCn1c(=O)[nH]c(=O)c2c1nc(-c1cccc(F)c1)n2CCOC [SJ000378928-1] | 69.9 µM
CCCCn1c(=O)[nH]c(=O)c2c1nc(-c1ccc([N+](=O)[O-])cc1)n2CC [SJ000378938-1] | 69.9 µM
CCCCn1c(=O)[nH]c(=O)c2c1nc(-c1ccc(OC)c(Br)c1)n2CC(C)C [SJ000378943-1] | 69.9 µM
CCCCn1c(=O)[nH]c(=O)c2c1nc(-c1ccc(OCCC)c(OCC)c1)n2CCOC [SJ000378946-1] | 69.9 µM
CCCCn1c(=O)[nH]c(=O)c2c1nc(-c1ccc(OC(F)(F)C(F)C(F)(F)F)cc1)n2O (stereo not drawn) [SJ000378966-1] | 69.9 µM
Cc1ccc(-c2nc3c(c(=O)[nH]c(=O)n3CC(C)C)n2CC(C)C)cc1[N+](=O)[O-] [SJ000379015-1] | 69.9 µM
C=CCOc1ccc(-c2nc3c(c(=O)[nH]c(=O)n3Cc3ccccc3)n2CCC)cc1Br [SJ000379301-1] | 69.9 µM
CCCn1c(=O)[nH]c(=O)c2c1nc(-c1ccc(OC(F)(F)C(F)C(F)(F)F)cc1)n2CCOC (stereo not drawn) [SJ000379374-1] | 69.9 µM
C=CCOc1ccc(-c2nc3c(c(=O)[nH]c(=O)n3CCCC)n2C)cc1Br [SJ000379462-1] | 69.9 µM
CCCn1c(-c2ccc(SC)cc2)nc2c1c(=O)[nH]c(=O)n2Cc1ccccc1 [SJ000381119-1] | 69.9 µM
CCCOc1ccc(-c2nc3c(c(=O)[nH]c(=O)n3Cc3ccccc3)n2CCO)cc1OCC [SJ000381474-1] | 69.9 µM
CCCCn1c(=O)[nH]c(=O)c2c1nc(-c1ccc(SC)cc1)n2C [SJ000382100-1] | 69.9 µM
COc1ccc(Br)cc1-c1nc2c(c(=O)[nH]c(=O)n2Cc2ccccc2)n1C [SJ000382136-1] | 69.9 µM
CCCn1c(-c2cccc(C(F)(F)F)c2)nc2c1c(=O)[nH]c(=O)n2Cc1ccccc1 [SJ000382289-1] | 69.9 µM
CCCn1c(-c2cccc(F)c2)nc2c1c(=O)[nH]c(=O)n2Cc1ccccc1 [SJ000382299-1] | 69.9 µM
CCCn1c(-c2ccc(C#N)cc2)nc2c1c(=O)[nH]c(=O)n2Cc1ccccc1 [SJ000383781-1] | 69.9 µM
COCCCn1c(-c2cccc(Cl)c2)nc2c1c(=O)[nH]c(=O)n2Cc1ccccc1 [SJ000383944-1] | 69.9 µM
Cn1c(-c2ccc(Cl)cc2)nc2c1c(=O)[nH]c(=O)n2Cc1ccccc1 [SJ000384618-1] | 69.9 µM

Compound | IC50
Cn1c(-c2cc(Cl)ccc2O)nc2c1c(=O)[nH]c(=O)n2Cc1ccccc1 [SJ000386224-1] | 69.9 µM
Cn1c(-c2cccc(F)c2)nc2c1c(=O)[nH]c(=O)n2Cc1ccccc1 [SJ000387665-1] | 69.9 µM
CCOc1ccc(-c2nc3c(c(=O)[nH]c(=O)n3Cc3ccccc3)n2C)cc1 [SJ000389476-1] | 69.9 µM
CC(C)Cn1c(-c2cc([N+](=O)[O-])ccc2Cl)nc2c1c(=O)[nH]c(=O)n2Cc1ccccc1 [SJ000390112-1] | 69.9 µM
CSc1ccc(-c2nc3c(c(=O)[nH]c(=O)n3CC(C)C)n2CC(C)C)cc1 [SJ000394956-1] | 69.9 µM
CCCN1C(=O)c2ccccc2NC1c1cccc(O)c1O (stereo not drawn) [SJ000395233-1] | 69.9 µM
COCCNC(=O)Cn1cnc2cc(-c3ccc(Cl)cc3)sc2c1=O [SJ000395304-1] | 69.9 µM
CN(C)c1ccc(-c2nc3c(c(=O)[nH]c(=O)n3Cc3ccccc3)n2C)cc1 [SJ000396262-1] | 69.9 µM
COc1ccc(-c2cc3ncn(CC(=O)O)c(=O)c3s2)cc1 [SJ000397503-1] | 69.9 µM
N#CCCn1cnc2cc(-c3ccc(Br)cc3)sc2c1=O [SJ000397713-1] | 69.9 µM
CCCCOC(=O)Cn1cnc2cc(-c3ccc(OC)cc3)sc2c1=O [SJ000399852-1] | 69.9 µM
CCOC(=O)Cn1cnc2cc(-c3ccc(OC)cc3)sc2c1=O [SJ000399862-1] | 69.9 µM
CCCn1c(=O)[nH]c(=O)c2c1nc(-c1ccc(C#N)cc1)n2CCN1CCOCC1 [SJ000403937-1] | 69.9 µM
Cn1c(-c2ccc(C(F)(F)F)cc2)nc2c1c(=O)[nH]c(=O)n2Cc1ccccc1 [SJ000404631-1] | 69.9 µM
CSc1nc2cc(-c3ccccc3)sc2c(=O)n1CCN1CCOCC1 [SJ000405932-1] | 69.9 µM
CCCn1c(=O)[nH]c(=O)c2c1nc(-c1ccc(NC(C)=O)cc1)n2CCN1CCOCC1 [SJ000406218-1] | 69.9 µM
COCCCn1c(-c2cc(Br)ccc2F)nc2c1c(=O)[nH]c(=O)n2Cc1ccccc1 [SJ000411586-1] | 69.9 µM
O=C1OCC(c2ccc(Cl)cc2)=C1c1ccc([N+](=O)[O-])cc1 [SJ000413143-1] | 69.9 µM
CCC(C)N1C(=O)c2ccccc2NC1c1cccc(OC)c1O (stereo not drawn) [SJ000413320-1] | 69.9 µM
CCCN1C(=O)c2ccccc2NC1c1cc(Cl)c(O)c(OC)c1 (stereo not drawn) [SJ000414199-1] | 69.9 µM
CCCCn1c(=O)[nH]c(=O)c2c1nc(-c1cccc(F)c1)n2CC [SJ000414469-1] | 69.9 µM

Compound | IC50
CCCCn1c(=O)[nH]c(=O)c2c1nc(-c1cccc(F)c1)n2C [SJ000415940-1] | 69.9 µM
CCCn1c(=O)[nH]c(=O)c2c1nc(-c1ccc(SC)cc1)n2CCOC [SJ000416762-1] | 69.9 µM
COC(=O)Cn1cnc2cc(-c3ccc(Cl)cc3)sc2c1=O [SJ000418500-1] | 69.9 µM
COCCCn1c(-c2ccc(C#N)cc2)nc2c1c(=O)[nH]c(=O)n2Cc1ccccc1 [SJ000420075-1] | 69.9 µM
C=CCOc1ccc(-c2nc3c(c(=O)[nH]c(=O)n3Cc3ccccc3)n2C)cc1Br [SJ000420085-1] | 69.9 µM
CCCn1c(-c2ccc(C(=O)O)cc2)nc2c1c(=O)[nH]c(=O)n2Cc1ccccc1 [SJ000420129-1] | 69.9 µM
CCCn1c(-c2ccc(C(=O)OC)cc2)nc2c1c(=O)[nH]c(=O)n2Cc1ccccc1 [SJ000420179-1] | 69.9 µM
CCc1ccc(-c2nc3c(c(=O)[nH]c(=O)n3CC(C)C)n2CCOC)cc1 [SJ000420343-1] | 69.9 µM
CCCCn1c(=O)[nH]c(=O)c2c1nc(-c1ccc(C#N)cc1)n2C [SJ000421295-1] | 69.9 µM
COCCn1c(-c2ccc(C)cc2)nc2c1c(=O)[nH]c(=O)n2CC(C)C [SJ000421396-1] | 69.9 µM
CCCCn1c(=O)[nH]c(=O)c2c1nc(-c1ccc(F)cc1)n2CCOC [SJ000421862-1] | 69.9 µM
COCCn1c(-c2ccc(F)cc2)nc2c1c(=O)[nH]c(=O)n2CC(C)C [SJ000422648-1] | 69.9 µM
CCCn1c(=O)[nH]c(=O)c2c1nc(-c1ccc(OC)cc1)n2CCOC [SJ000423271-1] | 69.9 µM
CCCn1c(=O)[nH]c(=O)c2c1nc(-c1cccc(C)c1)n2CCOC [SJ000423281-1] | 69.9 µM
CCCn1c(=O)[nH]c(=O)c2c1nc(-c1ccc(Cl)cc1)n2CCOC [SJ000424475-1] | 69.9 µM
CCCCn1c(=O)[nH]c(=O)c2c1nc(-c1ccc(C)cc1)n2C [SJ000425093-1] | 69.9 µM
CCCn1c(=O)[nH]c(=O)c2c1nc(-c1ccc(OC)c(C)c1)n2CCOC [SJ000425187-1] | 69.9 µM
COCCn1c(-c2ccc(OC)cc2)nc2c1c(=O)[nH]c(=O)n2CC(C)C [SJ000425224-1] | 69.9 µM
CCCCn1c(=O)[nH]c(=O)c2c1nc(-c1ccc(OC)c(C)c1)n2C [SJ000425256-1] | 69.9 µM
CCCCn1c(=O)[nH]c(=O)c2c1nc(-c1ccc(OC)cc1)n2C [SJ000425260-1] | 69.9 µM
CC(C)NC(=O)NC(=O)Cn1cnc2cc(-c3ccccc3)sc2c1=O [SJ000425388-1] | 69.9 µM

Compound | IC50
CN(C)C(=O)Cn1cnc2cc(-c3ccccc3)sc2c1=O [SJ000425603-1] | 69.9 µM
CCC(C)(C)NC(=O)Cn1cnc2cc(-c3ccccc3)sc2c1=O [SJ000425613-1] | 69.9 µM
CCN(CC)C(=O)Cn1cnc2cc(-c3ccccc3)sc2c1=O [SJ000425666-1] | 69.9 µM
COCCn1c(-c2cccc(C)c2)nc2c1c(=O)[nH]c(=O)n2CC(C)C [SJ000426389-1] | 69.9 µM
C=CCNC(=O)NC(=O)Cn1cnc2cc(-c3ccccc3)sc2c1=O [SJ000426777-1] | 69.9 µM
CCCn1c(=O)[nH]c(=O)c2c1nc(-c1cccc(OC)c1)n2CCOC [SJ000427207-1] | 69.9 µM
CCCCn1c(=O)[nH]c(=O)c2c1nc(-c1ccc(OCC)c(OC)c1)n2CCOC [SJ000427387-1] | 69.9 µM
COCC(C)NC(=O)Cn1cnc2cc(-c3ccc(Br)cc3)sc2c1=O (stereo not drawn) [SJ000427828-1] | 69.9 µM
CC(C)(C)NC(=O)NC(=O)Cn1cnc2cc(-c3ccccc3)sc2c1=O [SJ000427956-1] | 69.9 µM
C=C(C)CN(CC)C(=O)Cn1cnc2cc(-c3ccc(OC)cc3)sc2c1=O [SJ000429044-1] | 69.9 µM
CCCCn1c(=O)[nH]c(=O)c2c1nc(-c1ccc(O)c(OC)c1)n2CCC [SJ000429070-1] | 69.9 µM
CCn1c(-c2ccc(O)c(OC)c2)nc2c1c(=O)[nH]c(=O)n2Cc1ccccc1 [SJ000430392-1] | 69.9 µM
COc1cc(-c2nc3c(c(=O)[nH]c(=O)n3Cc3ccccc3)n2C)ccc1O [SJ000430813-1] | 69.9 µM
CCCCn1c(=O)[nH]c(=O)c2c1nc(-c1ccc(OCC(=O)O)cc1)n2CCC(C)C [SJ000431347-1] | 69.9 µM
CCCn1c(=O)[nH]c(=O)c2c1nc(-c1cccc(Br)c1)n2CCOC [SJ000431389-1] | 69.9 µM
C=CCN(CC=C)C(=O)Cn1cnc2cc(-c3ccc(OC)cc3)sc2c1=O [SJ000431447-1] | 69.9 µM
CCCn1c(-c2cc(Br)ccc2F)nc2c1c(=O)[nH]c(=O)n2Cc1ccccc1 [SJ000437843-1] | 69.9 µM
Cn1c(-c2ccc(OCC(=O)O)cc2)nc2c1c(=O)[nH]c(=O)n2Cc1ccccc1 [SJ000441071-1] | 69.9 µM
